Molecular target: T1, IGFR kinase (Homo sapiens, UniProt P08069)
T1 construct: purchased Millipore
Experiment: Enzyme assay (c), IGFR kinase, Caliper LabChip
Format: biochemical
Conditions: 30 nM IGFR kinase, 6 uM ATP, 3 uM peptide mix; read-out: IGFR IC50

T1 sequence (P08069 31-1367): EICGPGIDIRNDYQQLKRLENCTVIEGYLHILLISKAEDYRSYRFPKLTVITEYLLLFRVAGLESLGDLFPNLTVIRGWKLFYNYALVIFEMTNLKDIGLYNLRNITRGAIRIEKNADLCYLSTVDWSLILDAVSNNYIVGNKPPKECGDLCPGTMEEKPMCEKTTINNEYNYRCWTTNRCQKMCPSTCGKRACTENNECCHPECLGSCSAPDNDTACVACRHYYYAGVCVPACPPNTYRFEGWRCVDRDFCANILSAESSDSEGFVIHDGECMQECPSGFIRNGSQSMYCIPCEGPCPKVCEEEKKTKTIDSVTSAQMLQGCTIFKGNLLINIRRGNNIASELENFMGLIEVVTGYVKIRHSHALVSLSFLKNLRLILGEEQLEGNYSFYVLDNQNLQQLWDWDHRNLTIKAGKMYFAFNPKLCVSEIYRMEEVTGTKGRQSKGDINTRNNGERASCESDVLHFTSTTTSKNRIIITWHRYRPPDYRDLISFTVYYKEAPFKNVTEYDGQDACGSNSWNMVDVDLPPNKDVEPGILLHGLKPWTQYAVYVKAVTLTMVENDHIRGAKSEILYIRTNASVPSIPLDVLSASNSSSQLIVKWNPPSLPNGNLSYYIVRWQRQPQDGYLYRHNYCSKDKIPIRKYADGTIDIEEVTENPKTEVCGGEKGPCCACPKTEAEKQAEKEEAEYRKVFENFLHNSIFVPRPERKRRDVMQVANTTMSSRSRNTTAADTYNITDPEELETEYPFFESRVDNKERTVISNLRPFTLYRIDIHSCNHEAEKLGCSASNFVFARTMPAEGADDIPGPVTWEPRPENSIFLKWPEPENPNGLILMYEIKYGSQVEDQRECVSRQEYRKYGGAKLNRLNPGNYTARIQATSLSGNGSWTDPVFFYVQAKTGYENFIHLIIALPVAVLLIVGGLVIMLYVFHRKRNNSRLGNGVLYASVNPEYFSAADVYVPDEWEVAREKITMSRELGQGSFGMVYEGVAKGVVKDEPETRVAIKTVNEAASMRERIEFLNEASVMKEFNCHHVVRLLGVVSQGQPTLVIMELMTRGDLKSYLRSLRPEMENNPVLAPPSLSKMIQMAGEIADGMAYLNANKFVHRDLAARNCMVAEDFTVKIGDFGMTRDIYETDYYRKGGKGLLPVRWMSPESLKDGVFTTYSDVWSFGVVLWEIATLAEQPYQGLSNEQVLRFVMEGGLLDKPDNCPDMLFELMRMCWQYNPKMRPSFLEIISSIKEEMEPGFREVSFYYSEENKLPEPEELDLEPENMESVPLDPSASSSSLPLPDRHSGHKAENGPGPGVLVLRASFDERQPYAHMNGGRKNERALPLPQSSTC

Row | IC50 [nM] | Structure (SMILES)
1 | 167 | COc1cc(N2CC[C@H](O)C2)ccc1Nc1ncc(F)c(-c2cnc3ccccn23)n1 [Example 83, (3S)-1-[4-[(5-fluoro-4-imidazo[1,2-a]pyridin-3-yl-pyrimidin-2-yl)amino]-3-methoxy-phenyl]pyrrolidin-3-ol]
2 | 43 | COc1cc(N2CC[C@H](N(C)C)C2)ccc1Nc1ncc(Cl)c(-c2cnc3ccccn23)n1 [Example 3.16, 5-chloro-N-[4-[(3S)-3-dimethylaminopyrrolidin-1-yl]-2-methoxy-phenyl]-4-imidazo[1,2-a]pyridin-3-yl-pyrimidin-2-amine]
3 | 32 | COc1cc(N2CC[C@H](O)C2)ccc1Nc1ncc(Cl)c(-c2cnc3ccccn23)n1 [Example 3.47, (3S)-1-[4-[(5-chloro-4-imidazo[1,2-a]pyridin-3-yl-pyrimidin-2-yl)amino]-3-methoxy-phenyl]pyrrolidin-3-ol]
4 | 19 | COc1cc(N2CC[C@@H](O)C2)ccc1Nc1ncc(Cl)c(-c2cnc3ccccn23)n1 [Example 3.49, (3R)-1-[4-[(5-chloro-4-imidazo[1,2-a]pyridin-3-yl-pyrimidin-2-yl)amino]-3-methoxy-phenyl]pyrrolidin-3-ol]
5 | 16 | COc1cc(C(C)C(=O)N2CCN(CCO)CC2)ccc1Nc1ncc(Cl)c(-c2cnc3ccccn23)n1 (centres unmarked) [Example 3.41, 2-[4-[(5-chloro-4-imidazo[1,2-a]pyridin-3-yl-pyrimidin-2-yl)amino]-3-methoxy-phenyl]-1-[4-(2-hydroxyethyl)piperazin-1-yl]propan-1-one]
6 | 6 | CNCC(=O)N1CCN(c2ccc(Nc3ncc(Cl)c(-c4cnc5c(F)cc(F)cn45)n3)c(OC)c2)CC1 [Example 248, 1-[4-[4-[[5-chloro-4-(6,8-difluoroimidazo[1,2-a]pyridin-3-yl)pyrimidin-2-yl]amino]-3-methoxy-phenyl]piperazin-1-yl]-2-(methylamino)ethanone]
7 | 5 | COc1cc(N2CCN(CCO)CC2)ccc1Nc1ncc(Br)c(-c2cnc3ccccn23)n1 [Example 115, 2-[4-[4-[(5-bromo-4-imidazo[1,2-a]pyridin-3-yl-pyrimidin-2-yl)amino]-3-methoxy-phenyl]piperazin-1-yl]ethanol]
8 | 14 | CNCC(=O)N1CCN(c2ccc(Nc3ncc(C)c(-c4cnn5ccccc45)n3)c(OC)c2)CC1 [Example 160, 1-[4-[3-methoxy-4-[(5-methyl-4-pyrazolo[1,5-a]pyridin-3-yl-pyrimidin-2-yl)amino]phenyl]piperazin-1-yl]-2-(methylamino)ethanone]
9 | 16 | COc1cc(OC2CN(CC(C)(C)O)C2)ccc1Nc1ncc(Cl)c(-c2cnc3ccccn23)n1 [Example 63, 1-[3-[4-[(5-chloro-4-imidazo[1,2-a]pyridin-3-yl-pyrimidin-2-yl)amino]-3-methoxy-phenoxy]azetidin-1-yl]-2-methyl-propan-2-ol]
10 | 88 | COc1cc(N2CCN(C(C)=O)CC2)ccc1Nc1ncc(C2CC2)c(-c2cnc3c(F)cccn23)n1 [Example 201, 1-[4-[4-[[5-cyclopropyl-4-(8-fluoroimidazo[1,2-a]pyridin-3-yl)pyrimidin-2-yl]amino]-3-methoxy-phenyl]piperazin-1-yl]ethanone]
11 | 8 | CNCC(=O)N1CCC(c2ccc(Nc3ncc(F)c(-c4cnn5ccccc45)n3)c(OC)c2)CC1 [Example 238, 1-[4-[4-[(5-fluoro-4-pyrazolo[1,5-a]pyridin-3-yl-pyrimidin-2-yl)amino]-3-methoxy-phenyl]-1-piperidyl]-2-(methylamino)ethanone]
12 | 59 | CNCC(=O)N1CCN(c2ccc(OC)c(Nc3ncc(Cl)c(-c4cnc5ccccn45)n3)c2)CC1 [Example 145, 1-[4-[3-[(5-chloro-4-imidazo[1,2-a]pyridin-3-yl-pyrimidin-2-yl)amino]-4-methoxy-phenyl]piperazin-1-yl]-2-(methylamino)ethanone]
13 | 5 | COc1cc(N2CCN(C(=O)[C@@H](N)CO)CC2)ccc1Nc1ncc(Cl)c(-c2cnc3ccccn23)n1 [Example 24.7, (2S)-2-amino-1-[4-[4-[(5-chloro-4-imidazo[1,2-a]pyridin-3-yl-pyrimidin-2-yl)amino]-3-methoxy-phenyl]piperazin-1-yl]-3-hydroxy-propan-1-one]
14 | 12 | COc1cc(OC[C@H]2CCCN2)ccc1Nc1ncc(Cl)c(-c2cnc3ccccn23)n1 [Example 6.1, 5-chloro-4-imidazo[1,2-a]pyridin-3-yl-N-[2-methoxy-4-[[(2R)-pyrrolidin-2-yl]methoxy]phenyl]pyrimidin-2-amine]
15 | 14 | COc1cc(N2CCN(C(C)CO)CC2)ccc1Nc1ncc(C)c(-c2cnc3ccccn23)n1 (centres unmarked) [Example 274, 2-[4-[4-[(4-imidazo[1,2-a]pyridin-3-yl-5-methyl-pyrimidin-2-yl)amino]-3-methoxy-phenyl]piperazin-1-yl]propan-1-ol]
16 | 21 | COc1cc(CC(=O)NC2CCNC2)ccc1Nc1ncc(Cl)c(-c2cnc3ccccn23)n1 (centres unmarked) [Example 35, 2-[4-[(5-chloro-4-imidazo[1,2-a]pyridin-3-yl-pyrimidin-2-yl)amino]-3-methoxy-phenyl]-N-pyrrolidin-3-yl-acetamide]

Row | IC50 [nM] | Structure (SMILES)
17 | 77 | COc1cc(OC2CCN(C(C)=O)CC2)ccc1Nc1ncc(C)c(-c2cnc3ccccn23)n1 [Example 103, 1-[4-[4-[(4-imidazo[1,2-a]pyridin-3-yl-5-methyl-pyrimidin-2-yl)amino]-3-methoxy-phenoxy]-1-piperidyl]ethanone]
18 | 7 | COc1cc(N2CCN(C(=O)[C@@H](C)N)CC2)ccc1Nc1ncc(Cl)c(-c2cnc3ccc(F)cn23)n1 [Example 252, (2R)-2-amino-1-[4-[4-[[5-chloro-4-(6-fluoroimidazo[1,2-a]pyridin-3-yl)pyrimidin-2-yl]amino]-3-methoxy-phenyl]piperazin-1-yl]propan-1-one]
19 | 11 | COc1cc(N2CCN(CC(=O)N3CCOCC3)CC2)ccc1Nc1ncc(Cl)c(-c2cnc3ccccn23)n1 [Example 3.3, 2-[4-[4-[(5-chloro-4-imidazo[1,2-a]pyridin-3-yl-pyrimidin-2-yl)amino]-3-methoxy-phenyl]piperazin-1-yl]-1-morpholino-ethanone]
20 | 2 | COc1cc(C2CCN(CC(=O)N(C)C)CC2)ccc1Nc1ncc(Cl)c(-c2cnc3c(F)cccn23)n1 [Example 216, 2-[4-[4-[[5-chloro-4-(8-fluoroimidazo[1,2-a]pyridin-3-yl)pyrimidin-2-yl]amino]-3-methoxy-phenyl]-1-piperidyl]-N,N-dimethyl-acetamide]
21 | 11 | COc1cc(N2CCN(CCO)CC2)ccc1Nc1ncc(C)c(-c2cnn3ccccc23)n1 [Example 161, 2-[4-[3-methoxy-4-[(5-methyl-4-pyrazolo[1,5-a]pyridin-3-yl-pyrimidin-2-yl)amino]phenyl]piperazin-1-yl]ethanol]
22 | 56 | COc1cc(N2CCOCC2)ccc1Nc1ncc(F)c(-c2cnc3ccccn23)n1 [Example 79, 5-fluoro-4-imidazo[1,2-a]pyridin-3-yl-N-(2-methoxy-4-morpholino-phenyl)pyrimidin-2-amine]
23 | 9 | COc1cc(C2CCN(C(C)=O)CC2)ccc1Nc1ncc(C)c(-c2cnn3ccccc23)n1 [Example 233, 1-[4-[3-methoxy-4-[(5-methyl-4-pyrazolo[1,5-a]pyridin-3-yl-pyrimidin-2-yl)amino]phenyl]-1-piperidyl]ethanone]
24 | 5 | COc1cc(N2CCN(C(=O)C3CCCN3)CC2)ccc1Nc1ncc(Cl)c(-c2cnc3ccccn23)n1 (centres unmarked) [Example 24.3, [4-[4-[(5-chloro-4-imidazo[1,2-a]pyridin-3-ylpyrimidin-2-yl)amino]-3-methoxyphenyl]piperazin-1-yl]-pyrrolidin-2-yl methanone]
25 | 4 | CNCC(=O)N1CCc2cc(OC)c(Nc3ncc(Cl)c(-c4cnn5ccccc45)n3)cc21 [Example 156, 1-[6-[(5-chloro-4-pyrazolo[1,5-a]pyridin-3-yl-pyrimidin-2-yl)amino]-5-methoxy-indolin-1-yl]-2-(methylamino)ethanone]
26 | 27 | COc1cc(N2CCN(C[C@@H](O)CO)CC2)ccc1Nc1ncc(C)c(-c2cnc3ccccn23)n1 [Example 267, (2R)-3-[4-[4-[(4-imidazo[1,2-a]pyridin-3-yl-5-methyl-pyrimidin-2-yl)amino]-3-methoxy-phenyl]piperazin-1-yl]propane-1,2-diol]
27 | 14 | COc1cc(N2CC3CN(CCO)CC(C2)O3)ccc1Nc1ncc(F)c(-c2cnn3ccccc23)n1 [Example 175, 2-[7-[4-[(5-fluoro-4-pyrazolo[1,5-a]pyridin-3-yl-pyrimidin-2-yl)amino]-3-methoxy-phenyl]-9-oxa-3,7-diazabicyclo[3.3.1]nonan-3-yl]ethanol]
28 | 6 | COCCN1CCN(c2ccc(Nc3ncc(Cl)c(-c4cnc5ccccn45)n3)c(OC)c2)CC1 [Example 3.46, 5-chloro-4-imidazo[1,2-a]pyridin-3-yl-N-[2-methoxy-4-[4-(2-methoxyethyl)piperazin-1-yl]phenyl]pyrimidin-2-amine]
29 | 6 | COc1cc(C2CCN(C(=O)N(C)C)CC2)ccc1Nc1ncc(Cl)c(-c2cnc3ccccn23)n1 [Example 57, 4-[4-[(5-chloro-4-imidazo[1,2-a]pyridin-3-yl-pyrimidin-2-yl)amino]-3-methoxy-phenyl]-N,N-dimethyl-piperidine-1-carboxamide]
30 | 28 | COc1cc(CN2CCCOCC2)ccc1Nc1ncc(Cl)c(-c2cnc3ccccn23)n1 [Example 21.14, 5-chloro-4-imidazo[1,2-a]pyridin-3-yl-N-[2-methoxy-4-(1,4-oxazepan-4-ylmethyl)phenyl]pyrimidin-2-amine]
31 | 27 | COc1cc(N2CCNCC2)ccc1Nc1ncc(OC)c(-c2cnc3ccccn23)n1 [Example 93, 4-imidazo[1,2-a]pyridin-3-yl-5-methoxy-N-(2-methoxy-4-piperazin-1-yl-phenyl)pyrimidin-2-amine]
32 | 0.3 | COc1cc(N2CCCC2)ccc1Nc1ncc(Cl)c(-c2cnc3ccccn23)n1 [Example 3.44, 5-chloro-4-imidazo[1,2-a]pyridin-3-yl-N-(2-methoxy-4-pyrrolidin-1-yl-phenyl)pyrimidin-2-amine]

From patent US20100105655A1, “NOVEL COMPOUNDS 515” (ASTRAZENECA AB, priority 2008, published 2010)
